Here are results for 43 compounds from US8846746B2, “Pyrazole compound and pharmaceutical use thereof” (Japan Tobacco Inc., priority 2011, dated 2014).

human SGLT1, sequence (P13866 whole entry): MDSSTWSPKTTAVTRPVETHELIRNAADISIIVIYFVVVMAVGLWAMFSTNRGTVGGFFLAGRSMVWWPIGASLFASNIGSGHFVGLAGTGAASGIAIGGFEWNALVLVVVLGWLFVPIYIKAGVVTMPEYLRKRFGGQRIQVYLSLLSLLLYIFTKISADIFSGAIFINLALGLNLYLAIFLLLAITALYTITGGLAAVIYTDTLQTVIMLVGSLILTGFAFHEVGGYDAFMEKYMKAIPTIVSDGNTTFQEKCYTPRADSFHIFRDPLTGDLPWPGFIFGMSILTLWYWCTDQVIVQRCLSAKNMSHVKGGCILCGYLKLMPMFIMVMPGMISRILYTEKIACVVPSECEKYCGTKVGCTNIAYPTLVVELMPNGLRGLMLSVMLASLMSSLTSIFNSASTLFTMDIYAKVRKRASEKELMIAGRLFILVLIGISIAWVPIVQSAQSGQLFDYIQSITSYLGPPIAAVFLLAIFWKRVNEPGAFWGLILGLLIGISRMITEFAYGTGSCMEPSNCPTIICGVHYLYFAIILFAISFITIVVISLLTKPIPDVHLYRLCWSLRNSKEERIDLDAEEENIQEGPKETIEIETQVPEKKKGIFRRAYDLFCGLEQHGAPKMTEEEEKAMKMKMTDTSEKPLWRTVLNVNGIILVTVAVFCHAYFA

The target of one experiment is human SGLT1 (Homo sapiens (Human), UniProt P13866). As to the kind of experiment: SGLT1 inhibitory activity: 14C-AMG uptake into CHO-K1 cell line stably expressing human SGLT1. Format: cell-based. As to conditions: 14C-AMG uptake, CHO-K1 cells expressing human SGLT1. Here is the method:
SGLT1 inhibitory activity of a test compound (IC50 value) was calculated based on an amount of intake into a cell of labeled α-methyl-D-glucopyranoside (^14C-AMG) which is transported by SGLT1.
1) Construction of Human SGLT1 Expression Plasmid
A DNA fragment containing human SGLT1, wherein NheI recognition and cleavage sequence was added upstream of a Kozac consensus sequence of the vector; and a stop codon (TAG) and a SalI recognition and cleavage sequence was added just downstream of a coding region of the human SGLT1, was amplified by PCR using pCMV6-hSGLT1 (OriGene) as a template. The purified DNA fragment was cleaved by restriction enzymes NheI and SalI, and the obtained fragment was ligated into pcDNA3.1 (+) which was cleaved by NheI and XhoI to construct human SGLT1 expression plasmid.
2) Establishment of Stable Cell Lines Expressing Human SGLT1
A human SGLT1 expression plasmid pcDNA-hSGLT1 was transfected into CHO-K1 cells by Lipofectamine-2000 (Invitrogen). The cells were cultured in the presence of G418 (Nakalai tesque) and drug-resistant cells were selected. A cell line having the highest S/B ratio of an amount of ^14C-AMG uptake per cell treated by solvent to an amount of ^14C-AMG uptake per cell treated by phlorizin (SGLT inhibitor) was selected from the drug-resistant cells as a stable cell lines expressing human SGLT1.
3) Evaluation of SGLT1 Inhibitory Activity
The stable cell line expressing human SGLT1 was seeded at 5×10^4 cells/well on BioCoat™ Poly-D-Lysine 96 well plate with Lid (Becton Dickinson and Company) and cultured at 37° C. under 5% CO2 overnight. The medium was replaced with 100 μL/well of a Na (−) buffer (140 mM choline chloride, 2 mM KCl, 1 mM MgCl2, 1 mM CaCl2, 10 mM HEPES, 5 mM Tris, pH7.4) followed by incubation for 20 minutes at 37° C. under 5% CO2. After removing the Na (−) buffer, a test compound solution which was prepared from Na (+) buffer (140 mM NaCl, 2 mM KCl, 1 mM MgCl2, 1 mM CaCl2, 10 mM HEPES, 5 mM Tris, pH7.4) containing BSA was added thereto at 40 μL/well. In addition, Na (+) buffer containing 8 kBq of ^14C-AMG and 2 mM AMG was added thereto at 40 μL/well, and was mixed well. Na (−) buffer containing BSA was added to a blank well at 40 μL/well and additionally adding a Na (+) buffer containing 8 kBq of ^14C-AMG and 2 mM AMG, and was mixed well. Cells were incubated for 1 hour at 37° C. under 5% CO2. After the reaction, the cells were washed twice with 100 μL/well of iced wash buffer (100 mM AMG, 140 mM choline chloride, 2 mM KCl, 1 mM MgCl2, 1 mM CaCl2, 10 mM HEPES, 5 mM Tris, pH7.4), then lysed in 50 μL/well of a 0.2N aqueous solution of NaOH. The cell lysate was transferred to OptiPlate96 (Perkin-Elmer) and 100 μL/well of MicroScint-40 (Perkin-Elmer) was dispensed. The radioactivity was counted by TOPCOUNT NXT (Perkin-Elmer).
A data was obtained by deducting the average value (CPM) of blank wells from the average value (CPM) of each treated well. The inhibition ratio (%) was calculated by the following formula: inhibition rate (%)=[(A−B)/A]×100, where A is a data of the solvent control, and B is a data of a test compound.
Compound `CCCc1cccc(-c2cc(NC(=O)C3COC(=O)C3)nn2-c2ccccc2)c1` (racemic) [Example 7, 5-oxotetrahydrofuran-3-carboxylic acid[1-phenyl-5-(3-propylphenyl)-1H-pyrazol-3-yl]amide] gave an IC50 of 33 nM.
Compound `O=C1CC(C(=O)Nc2cc(-c3ccccc3)n(-c3ccccc3)n2)CN1` (racemic) [Example 9] gave an IC50 of 1600 nM.
The compound `O=C1CCC(C(=O)Nc2cc(-c3ccccc3)n(-c3ccccc3)n2)CN1` (racemic) [Example 10] displayed an IC50 of 5500 nM.
Compound `CCCc1cccc(-c2cc(NC(=O)C3CNC(=O)C3)nn2-c2ccccc2)c1` (racemic) [Example 11] had an IC50 of 4.6 nM. This IC50 lies about 1200-fold lower than the previous one.
The compound `CCCn1nc(NC(=O)C2CNC(=O)C2)cc1-c1ccccc1` (racemic) [Example 12] had an IC50 of 4400 nM.
In turn, `CCCCCCn1nc(NC(=O)C2CNC(=O)C2)cc1-c1ccccc1` (racemic) [Example 13] yielded an IC50 of 250 nM.
On the same count and under the same terms, for `CCCc1cccc(-c2cc(NC(=O)C3CNC(=O)C3)nn2C(C)C)c1` (racemic) [Example 17] the value was 66 nM; for `CCCc1cccc(-c2cc(NC(=O)C3CNC(=O)C3)nn2CC(C)C)c1` (racemic) [Example 18], 31 nM.
With `CCCc1cccc(-c2cc(NC(=O)C3(C)CNC(=O)C3)nn2-c2ccccc2)c1` (racemic) [Example 21], the IC50 stood at 680 nM.
Compound `CCCc1cccc(-c2cc(NC(=O)C3CNC(=O)C3)nn2CC)c1` (racemic) [Example 24] registered an IC50 of 130 nM.
The compound `CCCc1cccc(-c2cc(NC(=O)C3CNC(=O)C3)nn2C2CCCCC2)c1` (racemic) [Example 32] showed an IC50 of 12 nM.
As for `CCCc1cccc(-c2cc(NC(=O)C3CNC(=O)C3)nn2C(C)(C)C)c1` (racemic) [Example 42], the IC50 stood at 190 nM.
On the same count and under the same terms, the figure for `CCCc1cccc(-c2cc(NC(=O)C3CNC(=O)C3CC)nn2-c2ccccc2)c1` (racemic) [Example 60] is 17 nM; for `CCCc1cccc(-c2cc(NC(=O)C3CNC(=O)C3CCO)nn2-c2ccccc2)c1` (racemic) [Example 115] it is 41 nM.
`CCCc1cccc(-c2cc(NC(=O)C3CC(=O)NC3C)nn2-c2ccccc2)c1` (single isomer, unassigned) [Example 19] displayed an IC50 of 33 nM.
For the compound `CCCc1cccc(-c2cc(NC(=O)C3CC(=O)NC3C)nn2-c2ccccc2)c1` (single isomer, unassigned) [Example 20], the IC50 was 150 nM.
`CC1(C)CCCC(c2cc(NC(=O)[C@H]3CNC(=O)C3)nn2-c2ccccc2)C1` (single isomer, unassigned) [Example 88]: the IC50 worked out at 17 nM. Compared with the last compound, the IC50 is about 8.8-fold lower.
Take `CC1(C)CCCC(c2cc(NC(=O)[C@H]3CNC(=O)C3)nn2-c2ccccc2)C1` (single isomer, unassigned) [Example 89]: half-maximal inhibition (IC50) was put at 140 nM.
Same read-out and setting: for `O=C1CCC(C(=O)Nc2cc(-c3cccc(OC(F)(F)F)c3)n(-c3ccccc3)n2)CN1` (single isomer, unassigned) [Example 150] the value was 7.7 nM; for `CCC(F)(F)c1cccc(-c2cc(NC(=O)C3CCC(=O)NC3)nn2-c2ccccc2)c1` (single isomer, unassigned) [Example 151], 19 nM; for `O=C1CCC(C(=O)Nc2cc(-c3cccc(OC(F)(F)F)c3)n(-c3ccc(F)cc3)n2)CN1` (single isomer, unassigned) [Example 165], 22 nM.
On to `O=C1CCC(C(=O)Nc2cc(-c3cccc(OC(F)(F)F)c3)n(-c3ccccc3F)n2)CN1` (single isomer, unassigned) [Example 167], for which inhibition was half-maximal at 15 nM (IC50).
The compound `O=C1CCC(C(=O)Nc2cc(-c3cccc(OC(F)(F)F)c3)n(-c3cccc(F)c3)n2)CN1` (single isomer, unassigned) [Example 168] yielded an IC50 of 36 nM.
Regarding `CCC(F)(F)c1cccc(-c2cc(NC(=O)C3CCC(=O)NC3)nn2-c2cccc(F)c2)c1` (single isomer, unassigned) [Example 171], the IC50 came to 8.3 nM.
In turn, `CCC(F)(F)c1cccc(-c2cc(NC(=O)C3CCC(=O)NC3)nn2C2CCOCC2)c1` (single isomer, unassigned) [Example 185] registered an IC50 of 66 nM.
For `CC(C)(C)c1cccc(-c2cc(NC(=O)C3CCC(=O)NC3)nn2C2CCOCC2)c1` (single isomer, unassigned) [Example 186], inhibition was half-maximal at 75 nM (IC50).
For the compound `O=C1CCC(C(=O)Nc2cc(-c3cccc(OC(F)(F)F)c3)n(C3CCOCC3)n2)CN1` (single isomer, unassigned) [Example 189], the IC50 is 200 nM.

The same experiment, now with this note: 14C-AMG uptake, CHO-K1 cells stably expressing human SGLT1.
As to `CCCc1cccc(-c2cc(NC(=O)C3CCS(=O)(=O)C3)nn2-c2ccccc2)c1` (racemic) [Example 320], the IC50 came to 3 nM.
The compound `O=C(Nc1cc(-c2cccc(COCC(F)(F)F)c2)n(-c2ccccc2)n1)C1CNC(=O)C12CC2` (single isomer, unassigned) [Example 250, 4-oxo-5-azabispiro[2.4]heptane-7-carboxylic acid{1-phenyl-5-[3-(2,2,2-trifluoroethoxymethyl)phenyl]-1H-pyrazol-3-yl}amide] came in with an IC50 of 3.4 nM.
As for `CCCc1cccc(-c2cc(NC(=O)C3CNC(=O)C3CC)nn2-c2ccccc2)c1` (single isomer, unassigned) [Example 307], the IC50 worked out at 6 nM. Against the preceding compound, the IC50 is about 1.8-fold higher.
`CCC1C(=O)NCC1C(=O)Nc1cc(-c2cccc(OC(F)(F)F)c2)n(-c2ccccc2)n1` (single isomer, unassigned) [Example 308]: half-maximal inhibition (IC50) required 16 nM.
In turn, `CCCc1cccc(-c2cc(NC(=O)C3CNC(=O)C3CC)nn2-c2ccccc2)c1` (single isomer, unassigned) [Example 309] showed an IC50 of 49 nM. This IC50 is about 3.1-fold higher than that of the compound before.
On the same count and under the same terms, the figure for `CC(C)(C)COCc1cccc(-c2cc(NC(=O)C3CCC(=O)NC3)nn2-c2ccccc2)c1` (single isomer, unassigned) [Example 333] is 20 nM; for `CC(C)(C)OCc1cccc(-c2cc(NC(=O)C3CCC(=O)NC3)nn2-c2ccccc2)c1` (single isomer, unassigned) [Example 336] it is 25 nM; for `O=C1CCC(C(=O)Nc2cc(-c3cccc(COCCC(F)(F)F)c3)n(-c3ccccc3)n2)CN1` (single isomer, unassigned) [Example 338] it is 17 nM.
For `CC(C)(C)CCOc1cccc(-c2cc(NC(=O)C3CCC(=O)NC3)nn2-c2ccccc2)c1` (single isomer, unassigned) [Example 342], the IC50 was found to be 45 nM.
For the compound `CCCc1cccc(-c2cc(NC(=O)C3CNC(=O)C34CC4)nn2-c2ccccc2)c1` (single isomer, unassigned) [Example 360], the IC50 is 1.5 nM.
`CCCc1cccc(-c2cc(NC(=O)C3CC(=O)NC3C)nn2-c2ccccc2)c1` (single isomer, unassigned) [Example 404] came in with an IC50 of 18 nM. This IC50 is about 12-fold higher than that of the compound before.
Compound `O=C1CCC(C(=O)Nc2cc(-c3cccc(COCC(F)(F)F)c3)n(-c3ccccc3)n2)CN1` (single isomer, unassigned) [Example 560] showed an IC50 of 24 nM.

Still in this experiment, the particulars now being: CHO-K1, at 0.1 uM.
Turning to `CC1C(=O)NC(O)C1C(=O)Nc1cc(-c2cccc(OC(F)(F)F)c2)n(-c2ccc(F)cc2)n1` (racemic) [Example 259], the inhibition at 0.1 µM was 20%.
In turn, `CCCc1cccc(-c2cc(NC(=O)C3CNC(=O)C(C)C3)nn2-c2ccccc2)c1` (racemic) [Example 292] gave an inhibition at 0.1 µM of 43%.

The experiment is the same for the next values; noted with them: CHO-K1, at 0.3 uM.
In turn, `CC1C(=O)NC(O)C1C(=O)Nc1cc(-c2cccc(OC(F)(F)F)c2)n(-c2ccccc2)n1` (racemic) [Example 254] returned an inhibition at 0.3 µM of 49%.

Still in this experiment, the particulars now being: at 0.1 uM.
`CCCc1cccc(-c2cc(NC(=O)C3CNC(=O)C(C)C3)nn2-c2ccccc2)c1` (racemic) [Example 293]: the “human SGLT1 % Inhibition” value was 27%.

What is called IC50 is the concentration that gives 50% inhibition. A higher IC50 goes with weaker potency. What is called inhibition is the share of the control response that was lost under treatment. A low value points to a response near the control.
